From patent US20250040548A1, “Herbicidal compositions comprising saflufenacil” (BASF SF, priority 2023, published 2025)

Assays:
COMBE [1] = assay: Post-emergence application in field trials (Examples 2 and 3); type: in vivo, Commelina benghalensis; settings: A-1 50 g ai/ha, 21 DAT, growth stage 11-14, height 2-10 cm, 0.5% MSO
Description: (§1) In the examples below, using the method of S. R. Colby (1967) “Calculating synergistic and antagonistic responses of herbicide combinations”, Weeds 15, p. 22ff., the value E, which is expected if the activity of the individual active compounds is only additive, was calculated.
(§2) [formula] • where • X=percent activity using active herbicide A at an application rate a; • Y=percent activity using active saflufenacil at an application rate b; • E=expected activity (in %) by A+B at application rates a+b.
(§3) If the value found experimentally is higher than the value E calculated according to Colby, a synergistic effect is present.
(§4) On field test sites, natural weed infestation or seeded weeds were treated post-emergence of the weeds.
(§5) For the post emergence treatment, the weedy plants were treated as indicated below. The herbicidal compositions were, together with the adjuvant(s) as indicated, suspended or emulsified in water (200 l/ha unless indicated otherwise) as distribution medium and sprayed with commercial flat fan nozzles.
(§6) In the following experiments, the herbicidal activity for the individual herbicidal compositions (solo and mixture applications) was assessed the indicated days after treatment (DAT). The assessments for the damage on undesired weeds caused by the composition was carried out using a scale from 0 to 100%, compared to the untreated control plants. […]

BRADC = assay: as above; type: in vivo, Brachiaria decumbens; settings: growth stage 22-23, height 32-38 cm, 21 DAT, 1% Dash ® HC
Description: as §1, §2, §3, §4, §5
(§7) In the following experiments, the herbicidal activity for the individual herbicidal compositions (solo and mixture applications) was assessed the indicated days after treatment (DAT). The assessments for the damage on undesired weeds caused by the composition was carried out using a scale from 0 to 100%, compared to the untreated control plants. Here, 0 means no damage and 100 means complete destruction of the plants.
as §5, with “I/ha” for “l/ha”

DIGIN = assay: as above; type: in vivo, Digitaria insularis
Description: as §1, §2, §3, §4, §5, §7
as §5, with “I/ha” for “l/ha”

KCHSC = assay: Post-emergence application in greenhouse trials; type: in vivo, Kochia scoparia; settings: growth stage 33, 1% MSO
Description: as §1, §2, §3
(§8) The culture containers used were plastic pots containing loamy sand with approximately 3.0% of humus as substrate. The seeds of the test plants were sown separately for each species.
(§9) For the post-emergence treatment, the test plants were grown to a plant height of from 3 to 15 cm, depending on the plant habit, and only then treated with the active compounds which had been suspended or emulsified in water. To this end, the test plants were either sown directly, and grown in the same containers, or they were first grown separately as seedlings and transplanted into the test containers a few days prior to treatment.
(§10) Depending on the species, the plants were kept at 10-25° C. and 20-35° C., respectively.
(§11) The test period extended over 2 to 4 weeks. During this time, the plants were tended and their response to the individual treatments was evaluated.
(§12) Evaluation was carried out using a scale from 0 to 100. 100 means no emergence of the plants, or complete destruction of at least the above-ground parts, and 0 means no damage or normal course of growth. A good herbicidal activity is given at values of at least 70, and very good herbicidal activity is given at values of at least 85.
(§13) Unless indicated otherwise, herbicide A and saflufenacil were formulated (50 g/I) and applied with addition of 1% MSO (methylated seed oil) as adjuvant. In the greenhouse trials, the solvent used was water (200 I/ha).

IPOTR = assay: Post-emergence application in field trials (Examples 2 and 3); type: in vivo, Ipomoea triloba; settings: growth stage 40-41, height 65-75 cm, A-1 solo 30 g ai/ha, 21 DAT, 1% Dash ® HC
Description: as §1, §2, §3, §4, §5, §6

ERISS = assay: as above; type: in vivo, Erigeron sp.; settings: 14 DAT, height 30-50 cm, 0.5% v/v MSO
Description: as §1, §2, §3, §4, §5, §7
as §5, with “I/ha” for “l/ha”

SETVI = assay: as above; type: in vivo, Setaria viridis
Description: as §1, §2, §3, §4, §5, §7
as §5, with “I/ha” for “l/ha”

LAMAN = assay: as above; type: in vivo, Lamium amplexicaule; settings: height 3-18 cm, A-1 solo 25 g ai/ha, 21 DAT, 1% v/v MSO and 1% AMS (ammonium sulfate)
Description: as §1, §2, §3, §4, §5, §6

[2] = tested on: ZEAMX* (non-PPOi herbicide tolerant); assay: as above; type: in vivo, Zea mays; settings: 21 DAT
Description: as §1, §2, §3, §4, §5, §7
as §5, with “I/ha” for “l/ha”

EPHHL = assay: as above; type: in vivo, Euphorbia heterophylla; settings: A-1 25 g ai/ha, 21 DAT, growth stage 12-16, height 5-15 cm, 0.5% MSO
Description: as §1, §2, §3, §4, §5, §6

COMBE [3] = assay: Post-emergence application in greenhouse trials; type: in vivo, Commelina benghalensis; settings: growth stage 21, 1% MSO
Description: as §1, §2, §3, §8, §9, §10, §11, §12, §13

AVEST = assay: Post-emergence application in field trials (Examples 2 and 3); type: in vivo, Avena stirilis; settings: growth stage 12-22, A-1 solo 12.5 g ai/ha, 14 DAT, 1% v/ MSO
Description: as §1, §2, §3, §4, §5, §6

[4] = tested on: HORVS* (non-PPOi herbicide tolerant); assay: as above; type: in vivo, Hordeum vulgare; settings: 1% v/v MSO
Description: as §1, §2, §3, §4, §5, §7
as §5, with “I/ha” for “l/ha”

AVEFA = assay: as above; type: in vivo, Avena fatua; settings: 1% v/v MSO
Description: as §1, §2, §3, §4, §5, §7
as §5, with “I/ha” for “l/ha”

Compound: CCOC(=O)COc1ccccc1Oc1nc(-n2c(=O)cc(C(F)(F)F)n(C)c2=O)c(F)cc1Cl [A-1, ethyl 2-[2-[[3-chloro-5-fluoro-6-[3-methyl-2,6-dioxo-4-(trifluoromethyl)pyrimidin-1-yl]-2-pyridyl]oxy]phenoxy]acetate]
- % Herbicidal activity (COMBE [1]): 94%
- % Herbicidal activity (BRADC; A-1 solo 30 g ai/ha): 75%
- % Herbicidal activity (BRADC; A-1 solo 50 g ai/ha): 88%
- % Herbicidal activity (DIGIN; A-1 50 g ai/ha, 7 DAT, height 60-80 cm, field, 0.5% v/v MSO): 70%
- % Herbicidal activity (DIGIN; DIGIN, growth stage 65, height 40-50 cm, A-1 solo 30 g ai/ha, 21 DAT, 1% v/v MSO): 53%
- % Herbicidal activity (KCHSC; A-1 0.2 g ai/ha, 6 DAT): 15%
- % Herbicidal activity (KCHSC; A-1 0.2 g ai/ha, 20 DAT): 15%
- % Herbicidal activity (KCHSC; A-1 0.3 g ai/ha, 6 DAT): 55%
- % Herbicidal activity (KCHSC; A-1 0.4 g ai/ha, 6 DAT): 55%
- % Herbicidal activity (KCHSC; A-1 0.4 g ai/ha, 20 DAT): 55%
- % Herbicidal activity (KCHSC; A-1 0.9 g ai/ha, 6 DAT): 90%
- % Herbicidal activity (KCHSC; A-1 1 g ai/ha, 6 DAT): 95%
- % Herbicidal activity (IPOTR): 57%
- % Herbicidal activity (ERISS; A-1 25 g ai/ha): 13%
- % Herbicidal activity (ERISS; A-1 50 g ai/ha): 18%
- % Herbicidal activity (SETVI; A-1 12.5 g ai/ha, 19 DAT, growth stage 13-19, height 2.5-10 cm, field, 1% v/v MSO and 1% w/v ammoniumsulfate): 87%
- % Herbicidal activity (SETVI; A-1 25 g ai/ha, 19 DAT, growth stage 13-19, height 2.5-10 cm, field, 1% v/v MSO and 1% w/v ammoniumsulfate): 96%
- % Herbicidal activity (SETVI; SETVI, height 50-61 cm, A-1 solo 25 g ai/ha, 42 DAT, 1% v/v MSO and 2.5% AMSOL ®): 57%
- % Herbicidal activity (LAMAN): 93%
- % Herbicidal activity ([2]; A-1 12.5 g ai/ha, growth stage 15, 1% v/v MSO and 1% w/v ammoniumsulfate): 40%
- % Herbicidal activity ([2]; A-1 25 g ai/ha, growth stage 15, 1% v/v MSO and 1% w/v ammoniumsulfate): 83%
- % Herbicidal activity ([2]; A-1 50 g ai/ha, growth stage 18, 0.5% MSO): 92%
- % Herbicidal activity (EPHHL): 97%
- % Herbicidal activity (COMBE [3]; A-1 0.2 g ai/ha, 6 DAT): 15%
- % Herbicidal activity (COMBE [3]; A-1 0.2 g ai/ha, 20 DAT): 40%
- % Herbicidal activity (COMBE [3]; A-1 0.4 g ai/ha, 20 DAT): 75%
- % Herbicidal activity (AVEST): 95%
- % Herbicidal activity ([4]; A-1 18 g ai/ha, 29 DAT, growth stage 15-24, height 25-45 cm, field, 100 l/ha water): 73%
- % Herbicidal activity ([4]; HORVS* (non-PPOi herbicide tolerant), growth stage 15, height 31-43 cm, A-1 solo 12.5 g ai/ha, 16 DAT): 72%
- % Herbicidal activity ([4]; HORVS* (non-PPOi herbicide tolerant), growth stage 15, height 31-43 cm, A-1 solo 50 g ai/ha, 16 DAT): 96%
- % Herbicidal activity (AVEFA; A-1 18 g ai/ha, 28 DAT, growth stage 14-15, height 9-16 cm, field, 100 l/ha water): 83%
- % Herbicidal activity (AVEFA; A-1 18 g ai/ha, 29 DAT, growth stage 14-23, height 24-40 cm, field, 100 l/ha water): 80%
- % Herbicidal activity (AVEFA; AVEFA, growth stage 15-16, height 25-38 cm, A-1 solo 12.5 g ai/ha, 16 DAT): 90%
- % Herbicidal activity (AVEFA; AVEFA, growth stage 15-16, height 25-38 cm, A-1 solo 25 g ai/ha, 16 DAT): 95%
- % Herbicidal activity (AVEFA; AVEFA, growth stage 15-16, height 25-38 cm, A-1 solo 50 g ai/ha, 16 DAT): 98%
